We go through seven compounds from article PMC3989197, “A Novel Carbonyl Reductase with Anti-Prelog Stereospecificity from Acetobacter sp. CCTCC M209061: Purification and Characterization” (PLoS ONE, 2014).

For test [1], the system named is T1, AcCR (carbonyl reductase).
T1 construct: native purification from Acetobacter cells (ammonium sulfate, DEAE-Sepharose, Native-PAGE); homotetramer 104 kDa, subunit 27 kDa
The test can be described thus: spectrophotometric initial rate at […] nm. In kind it is biochemical, Acetobacter sp. CCTCC M209061.

In test [2] the test system is T1, AcCR (carbonyl reductase). In words: spectrophotometric initial rate at […] nm; Hill fit. It counts as biochemical, Acetobacter sp. CCTCC M209061. Conditions: NADH-linked reduction (NADH fixed 1 mM), pH 5.0, 25°C; sigmoidal, cooperative.
Test [3] concerns the target carbonyl reductase from Acetobacter sp. CCTCC M209061 (AcCR) (Acetobacter sp. CCTCC M209061). The test can be described thus: SEC; gel permeation on Superdex G-200, 50 mM phosphate buffer pH 7.0 with 0.15 M NaCl, 0.2 ml/min, calibrated with mass markers; apparent native mass (104 kDa) compared with the subunit mass by SDS-PAGE (27 kDa). On the technique in general: In gel filtration, larger molecules generally elute earlier.

Setting [4] is: oxidation of isopropanol (fixed 110 mM), pH 8.0, 35°C.

As to `CC(=O)c1ccc(Cl)cc1` [4′-chloroacetophenone], the Km (as a rule, the substrate concentration at which the rate is half of its maximum) in test [1] (NADPH-linked reduction (NADPH fixed 0.1 mM), pH 7.5, 25°C) stood at 2960 ± 87 µM; in test [2] it was 4130 ± 157 µM.
On to “carbonyl reductase from Acetobacter sp. CCTCC M209061 (AcCR) (enzyme)”, for which the stoichiometry N (usually the number of molecules, sites or subunits per partner or assembly) in test [3] was found to be 4.
With `NC(=O)C1=CN([C@@H]2O[C@H](COP(=O)(O)OP(=O)(O)OC[C@H]3O[C@@H](n4cnc5c(N)ncnc54)[C@H](O)[C@@H]3O)[C@@H](O)[C@H]2O)C=CC1` [NADH], in test [1] (reduction of 4′-chloroacetophenone (fixed 5 mM), pH 5.0, 25°C), the Km is 660 ± 21 µM.
For `CC(C)O` [isopropanol], in test [1] (NAD+-linked oxidation (NAD+ fixed 5 mM), pH 8.0, 35°C), the Km stood at 48300 ± 986 µM.
For the compound `NC(=O)C1=CN([C@@H]2O[C@H](COP(=O)(O)OP(=O)(O)OC[C@H]3O[C@@H](n4cnc5c(N)ncnc54)[C@H](OP(=O)(O)O)[C@@H]3O)[C@@H](O)[C@H]2O)C=CC1` [NADPH], the Km in test [1] (reduction of 4′-chloroacetophenone (fixed 5 mM), pH 7.5, 25°C) amounted to 26 ± 1 µM.
As for `NC(=O)c1ccc[n+]([C@@H]2O[C@H](COP(=O)(O)OP(=O)(O)OC[C@H]3O[C@@H](n4cnc5c(N)ncnc54)[C@H](O)[C@@H]3O)[C@@H](O)[C@H]2O)c1` [NAD^+], the Km in test [1] (setting [4]) came to 1330 ± 45 µM.
On to `NC(=O)c1ccc[n+]([C@@H]2O[C@H](COP(=O)(O)OP(=O)(O)OC[C@H]3O[C@@H](n4cnc5c(N)ncnc54)[C@H](OP(=O)(O)O)[C@@H]3O)[C@@H](O)[C@H]2O)c1` [NADP^+], for which the Km in test [1] (setting [4]) amounted to 1120 ± 35 µM.
